Experimental data from PMC8212937 (Alcoholism, clinical and experimental research, 2009).

Assays:
[1] = target: T1, aldehyde dehydrogenase 2 (ALDH-2) (Homo sapiens, UniProt P05091); test: fluorimetric dehydrogenase activity assay; format: biochemical
T1 sequence (P05091 18-517): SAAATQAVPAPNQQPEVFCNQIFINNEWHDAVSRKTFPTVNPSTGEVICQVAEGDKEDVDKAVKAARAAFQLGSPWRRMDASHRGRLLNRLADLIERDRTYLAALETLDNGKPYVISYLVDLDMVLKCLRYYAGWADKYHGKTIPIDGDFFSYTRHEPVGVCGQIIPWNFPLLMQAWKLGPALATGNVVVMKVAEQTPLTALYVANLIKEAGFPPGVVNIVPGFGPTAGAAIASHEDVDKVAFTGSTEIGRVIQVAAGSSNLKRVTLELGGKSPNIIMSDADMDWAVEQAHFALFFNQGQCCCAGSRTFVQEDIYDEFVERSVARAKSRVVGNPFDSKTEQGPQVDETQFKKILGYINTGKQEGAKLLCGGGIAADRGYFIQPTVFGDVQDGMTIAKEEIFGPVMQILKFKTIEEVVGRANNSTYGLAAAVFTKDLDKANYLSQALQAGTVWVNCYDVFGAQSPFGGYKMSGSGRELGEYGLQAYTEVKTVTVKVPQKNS

[2] = target: T2, ALDH-1 (Homo sapiens, UniProt P00352); test: fluorimetric dehydrogenase activity assay; format: biochemical
T2 sequence (P00352 2-501): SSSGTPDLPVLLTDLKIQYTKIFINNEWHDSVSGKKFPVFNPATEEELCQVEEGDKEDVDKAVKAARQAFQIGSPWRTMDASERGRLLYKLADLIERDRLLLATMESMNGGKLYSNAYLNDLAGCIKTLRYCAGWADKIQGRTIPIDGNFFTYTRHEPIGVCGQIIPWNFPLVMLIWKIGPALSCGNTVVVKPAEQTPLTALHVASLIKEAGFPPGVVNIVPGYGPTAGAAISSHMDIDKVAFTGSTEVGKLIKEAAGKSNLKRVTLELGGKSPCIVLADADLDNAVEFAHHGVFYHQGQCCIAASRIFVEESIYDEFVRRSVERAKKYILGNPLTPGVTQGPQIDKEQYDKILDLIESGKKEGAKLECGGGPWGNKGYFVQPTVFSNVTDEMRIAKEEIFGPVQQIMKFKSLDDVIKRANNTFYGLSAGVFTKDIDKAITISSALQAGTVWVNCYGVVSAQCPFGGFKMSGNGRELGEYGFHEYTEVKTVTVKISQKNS

CS(=O)(=O)Nc1ccc(-c2coc3cc(OCc4cccc(C(=O)O)c4)ccc3c2=O)cc1 [CVT-10216, 3-((3-(4-(methylsulfonamido)phenyl)-4-oxo-4H-chromen-7-yloxy)methyl)benzoic acid]
IC50 [1]: ~29 nM | IC50 [2]: 1300 nM
